Measurements as given in patent US20130237582A1, “PHARMACEUTICAL COMBINATION OF PACLITAXEL AND A CDK INHIBITOR” (Piramal Enterprises Limited, priority 2010, published 2013).

What was measured:
HIF-1α = HIF-1α reporter gene based assay (U251 HRE); format: cell-based; conditions: hypoxia (<1% O2), 0.01-10 μM, 20 h
From the text: 1) U251 HRE: The genetically engineered cells U251 HRE which stably express a recombinant vector in which the Luciferase reporter gene is under control of three copies of a canonical HRE. 2) U251 pGL3: A control cell line contains the firefly Luciferase reporter gene under control of the constitutively active SV40 promoter and enhancer that helps to exclude compounds that inhibit Luciferase expression in a nonspecific and/or HIF-1-independent fashion. These cells expressed high basal levels of Luciferase in normoxic conditions and slightly lower levels in hypoxic conditions.
U251 HRE cells were inoculated into 96 well white flat-bottomed plates at 10000-15000 cells/well in a volume of 180 μL and incubated for 24 h at 37° C., 5% CO2, and ambient O2. Compound A was tested at various concentrations viz. […] After 20 h incubation, the plates were removed and incubated at room temperature, 5% CO2, and ambient O2 for 1.5 h. 40 μL of Bright Glo Luciferase reagent (Promega™, USA) was added and after 3 min, luminescence was measured using a Polar Star Plate Reader (USA) in luminescence mode. Appropriate control cells (U251 pGL3) were treated identically, except that they were treated at 37° C., 5% CO2 and ambient O2. Compound toxicity was assayed using the MTS assay.

[1] = test system: MCF-7, BT-549 and MDA-MB-231 cell lines; test: Wound healing assay (cell migration); format: cell-based, human; conditions: 1 μM and 3 μM; 24 h
Description: The wound-healing assay is simple, inexpensive, and one of the earliest developed methods to study directional cell migration in vitro. This method mimics cell migration during wound healing in vivo.
Protocol: • 1. MCF-7 cells were seeded in RPMI 1460 medium with 10% FCS in […] tissue culture flask and incubated for 24 h. • 2. The cells were trypsinized and seeded at a density of (0.5−2.0)×10^6 per well in a sterile 6 well plate. • 3. The plate was incubated for about 16 h in humidified CO2 incubator (5% CO2) at 37° C. under ambient oxygen levels. […] The required number of cells for a confluent monolayer depends on both the particular cell type and size of dishes. • 4. The cell monolayer in a straight line was scraped evenly to create a “scratch” with a pipette tip. The first image of the scratches was captured before addition of the compound. • 5. Compound A was added at concentrations of 1 μM and 3 μM. • 6. The plates were then kept in the incubator for further incubation. The time frame for incubation was determined empirically for the particular cell type used. • 7. After the incubation, the dish was placed under a phase contrast microscope (Zeiss Axio Observer, Germany), reference point was matched, the photographed regions of the first image were aligned and the second image was captured. For each image distances between one side of the scratch and the other were measured. […]

Bcl-2 [2] = test: Western blot analysis in MDA-MB-231 cells; format: cell-based, human; conditions: 1.5 and 4.5 μM, 6, 24 and 30 h
Description: (§1) The Western blot assay was carried out according to the procedure disclosed in Molecular Cancer Therapeutics, 2007, 6, 918-925 with some modifications.
(§2) MCF-7 and MDA-MB-231 cells were seeded in RPMI 1460 medium with 10% FCS in […] tissue culture flask and incubated for 24 h. The cells were treated with Compound A at 1.5 and 4.5 μM. At various time points, i.e. 6, 24 and 30 h the cells were harvested or trypsinized and lysed using lysis buffer (Sigma Aldrich, USA). Protein content was estimated. Lysate was applied to Sodium Dodecyl Sulphate-Polyacrylamide Gel Electrophoresis (SDS-PAGE) followed by western blotting (Molecular Cancer Therapeutics, 2007, 6, 918-925). Western blotting was done using specific antibodies to Bcl-2 and actin. The results are depicted in FIG. 4.

[3] = test system: all the breast cancer cell lines; test: PI assay, summary over the breast cancer cell line panel; format: cell-based; conditions: Homo sapiens; nine breast cancer cell lines of Table 1B; read-out: IC50 range over all the breast cancer cell lines
Description: The propidium iodide fluorescence assay (PI) was carried out according to the procedure mentioned in Anticancer Drugs, 1995, 6, 522-32. The assay was developed to characterize the in vitro growth of human tumor cell lines as well as to test the cytotoxic activity of the compounds. Propidium iodide (PI) was used as a dye, which penetrates only damaged cellular membranes. Intercalation complexes are formed by PI with double-stranded DNA, which effect an amplification of the fluorescence. After freezing the cells at −20° C. for 24 h, PI had access to total DNA leading to total cell population counts. Background readings were obtained from cell-free wells containing media and propidium iodide. The human breast cancer cell lines (i.e. […] Control wells were treated with vehicle (DMSO). At the end of the incubation periods, the plates were assayed using PI cytotoxicity assay protocol. Percent cytoxicity was calculated at various drug concentrations and from the graph plotted the IC50 values were determined.

Bcl-2 [4] = test: Western blot analysis in MCF-7 cells; format: cell-based, human; conditions: 1.5 and 4.5 μM, 6, 24 and 30 h
Description: as §1, §2

cyclin D1 [5] = test: Western blot of cell cycle proteins in MDA-MB-231; format: cell-based, human; conditions: 1.5 μM and 5 μM, 24 h
Description: (§3) Correlation of PARP activity and cell cycle proteins cyclin D1, total Rb and pRb 780 were studied in two TNBC cell lines viz. MDA-MB-468 and MDA-MB-231. MDA-MB-231 and MDA-MB-468 cells were seeded in RPMI 1460 medium with 10% FCS in […] tissue culture flask and incubated for 24 h. These cells were treated at 1.5 μM and 5 μM Compound A for 24 h. The cells were harvested (trypsinised) and lysed using lysis buffer. Western blotting was carried out (Molecular Cancer […], 2007, 6, 918-925) using specific antibody to PAR, PARP, cyclin D1, CDK4 and pRb Ser 780.

CDK4 = test: Western blot of cell cycle proteins in MDA-MB-231; format: cell-based, human; conditions: 1.5 μM and 5 μM, 24 h
Description: as §3

pRb Ser 780 = test: Western blot of cell cycle proteins in MDA-MB-231; format: cell-based, human; conditions: 1.5 μM and 5 μM, 24 h
Description: as §3

cyclin D1 [6] = test: Western blot of cell cycle proteins in MCF-7; format: cell-based, human; conditions: 1.5 μM, 3, 6, 9, 12 and 24 h
Description: (§4) MCF-7 cells were seeded in RPMI 1460 medium with 10% FCS in […] tissue culture flask and incubated for 24 h. These cells were treated with Compound A at 1.5 μM. At various time points viz. 3 h, 6 h, 9 h, 12 h and 24 h the cells were harvested (trypsinised) and lysed using lysis buffer. Protein content was estimated by Bradford method (Anal. Biochem., 1976, 72, 248-254). Lysate was applied to Sodium Dodecyl Sulphate-Polyacrylamide Gel Electrophoresis (SDS-PAGE) followed by Western blotting. Western blotting was done using specific antibodies to various cell cycle proteins viz. cyclin D1, CDK4, Rb and pRbSer780.

pRbSer780 = test: Western blot of cell cycle proteins in MCF-7; format: cell-based, human; conditions: 1.5 μM, 3, 6, 9, 12 and 24 h
Description: as §4

Rb = test: Western blot of cell cycle proteins in MCF-7; format: cell-based, human; conditions: 1.5 μM, 3, 6, 9, 12 and 24 h
Description: as §4

IC50 [3]: 0.3 to 1 µM
Compound: CN1CC[C@@H](c2c(O)cc(O)c3c(=O)cc(-c4ccccc4Cl)oc23)[C@@H]1CO.Cl [Compound A, (+)-trans-2-(2-Chloro-phenyl)-5,7-dihydroxy-8-(2-hydroxymethyl-1-methyl-pyrrolidin-3-yl)-chromen-4-one hydrochloride]
expression of HIF-1α (luciferase reporter) (HIF-1α): effectively blocked the expression of HIF-1α in a dose dependent manner
cell migration (wound healing) [1]: potent anti migratory effect
expression of antiapoptotic protein Bcl-2 (Bcl-2 [2]): significant down regulation was observed at 30 h
expression of antiapoptotic protein Bcl-2 (Bcl-2 [4]): significantly down regulated from 24 h onwards
cyclin D1 level (cyclin D1 [5]): dose dependent decrease
CDK4 level (CDK4): dose dependent decrease
pRb level (pRb Ser 780): dose dependent decrease
Cyclin D1 expression (cyclin D1 [6]): decrease from 6 h onwards and significantly at 12 h
pRb expression (pRbSer780): decrease from 6 h onwards and significantly at 12 h
total Rb (Rb): no significant change in total Rb except at 24 h
